Data published in patent publication EP4656640A1, “IRAK4 DEGRADER AND USE THEREOF” (Shanghai Qilu Pharmaceutical Research and Development …, priority 2023, dated 2024).
Like-named read-outs stand apart in the source and are kept apart here.

Columns and labels:
[1] = Mouse pharmacokinetics, oral (Experiment 1); assay type: in vivo, C57BL/6 mice; details: mice, PO 100 mg/kg, fasted overnight, plasma
Description: C57BL/6 mice were used as test animals to study the pharmacokinetic behavior of the compounds of the present disclosure in mouse plasma after oral administration at a dose of 100 mg/kg.
C57BL/6, male, transferred from the animal repository of the laboratory institution (999M-018).
Three male C57BL/6 mice were fasted overnight (10-14 hours) with free access to water one day before administration. The mice were fed 4 hours after administration. The dose for PO administration was 100 mg/kg, with an administration volume of 20 mL/kg.
After administration, blood samples (0.03 mL) were collected from the mice via venipuncture at 0.083, 0.25, 0.5, 1, 2, 4, 8, and 24 hours. The samples were placed in EDTA-K2 tubes and centrifuged at 6800 rpm for 5 minutes at 2-8°C. The plasma was separated and stored at -80°C.
• 1) 10 µL of plasma sample was added to 200 µL of methanol for precipitation. After mixing, the mixture was centrifuged at 18000 g for 10 minutes. • 2) The processed supernatant solution was taken for LC/MS/MS analysis to determine the concentration of the test compound.
• Liquid phase conditions: Shimadzu LC-30AD pump • Mass spectrometry conditions: AB Sciex API 5500 mass spectrometer • Chromatographic column: Phenomenex Kinetex 2.6 µm C18 50 3.0 mm • Mobile phase: Solution A was 0.1% formic acid in water, and solution B was 0.1% formic acid in acetonitrile • Flow rate: 0.6 mL/min • Elution time: Gradient elution for 0-1.6 minutes.
The main pharmacokinetic parameters were calculated using WinNonlin 8.0.

IL-6 secretion = test: Inhibition of induced IL-6 secretion in human PBMCs (CBA); assay type: cell-based; details: PBMC
Description: (§1) The effect of PROTAC small molecules on inflammatory factors in PBMCs downstream of IRAK4 induced by TLR and IL-1 was detected based on the CBA (cytometric bead array) method.
(§2) Step 2: The density of PBMCs was adjusted to 1 E6/mL, and 150 µL of PBMCs in 1640 complete medium were seeded into a 96-well plate, followed by incubation at 37°C for 1 hour.
(§3) Step 3: 50 µL of serially diluted small molecule (working concentration: 10000 nM, 1:3 dilution) drugs were inoculated into the plate in a 37°C incubator for 8 hours.
(§4) Step 4: 10 µL of stimulants were added respectively, with final concentrations of 100 ng/mL for LPS, 1 µg/mL for R848, and 100 ng/mL for IL-1β.
(§5) Step 5: CBA assay. The concentrations of IL-6 and TNF-α in the cell culture supernatant were determined using Hu IL-6 CBA Flex Set A7 and Hu TNF- CBA Flex Set D9.
(§6) Step 6: Standard samples were prepared: 2500 pg/mL, 1250 pg/mL,...0. A 1:2 serial dilution was performed to obtain 10 concentrations.
(§7) Step 7: The mixed capture beads were resuspended in capture bead diluent (1:50), and cell culture supernatant (50 µL) was added, followed by incubation at room temperature for 10 minutes.
(§8) Step 8: The detection reagent prepared with detection diluent was added, and the mixture was incubated in the dark at room temperature for 3 hours. At the end of incubation, the samples were washed once with wash buffer and resuspended for detection.
(§9) The concentrations of IL-6 and TNFα were calculated using the standard curve method. Data presentation and IC50 calculation were performed using Prism 8.0.2.

[2] = Dog pharmacokinetics, oral gavage (Experiment 3); assay type: in vivo; details: Beagle dogs, oral gavage 2.5 mg/kg, plasma
Description: Healthy Beagle dogs, male, weighing about 8-10 kg, 3 animals per group.
The animals were not fasted and had free access to water.
Venous blood (0.5-0.8 mL) was collected at 15 minutes, 30 minutes, 1 hour, 2 hours, 4 hours, 8 hours, and 24 hours after oral gavage administration, placed in K2EDTA tubes, and centrifuged at 4°C to separate plasma. The concentration of the compound in plasma was determined by liquid chromatography-tandem mass spectrometry.
The main pharmacokinetic parameters were calculated using WinNonlin. […] Table 8. Pharmacokinetic parameters of some compounds of the present disclosure administered orally to dogs

TNFα secretion = test: Inhibition of induced TNFα secretion in human PBMCs (CBA); assay type: cell-based; details: PBMC
Description: as §1, §2, §3, §4, §5, §6, §7, §8, §9

IRAK4 [3] = molecular target: T1, IRAK4 (Homo sapiens, UniProt Q9NWZ3); test: Degradation of IRAK4 in SU-DHL-2 cells (flow cytometry); assay type: cell-based; parameters: The degradation level of IRAK4 protein in SU-DHL-2 cell line by the compounds was detected by flow cytometry; endogenous in cells; host or cells: SU-DHL-2; OCI-LY3; details: SU-DHL-2 cells, 24 hours incubation; read-out: SU-DHL-2 DC50
T1 sequence (Q9NWZ3 1-460): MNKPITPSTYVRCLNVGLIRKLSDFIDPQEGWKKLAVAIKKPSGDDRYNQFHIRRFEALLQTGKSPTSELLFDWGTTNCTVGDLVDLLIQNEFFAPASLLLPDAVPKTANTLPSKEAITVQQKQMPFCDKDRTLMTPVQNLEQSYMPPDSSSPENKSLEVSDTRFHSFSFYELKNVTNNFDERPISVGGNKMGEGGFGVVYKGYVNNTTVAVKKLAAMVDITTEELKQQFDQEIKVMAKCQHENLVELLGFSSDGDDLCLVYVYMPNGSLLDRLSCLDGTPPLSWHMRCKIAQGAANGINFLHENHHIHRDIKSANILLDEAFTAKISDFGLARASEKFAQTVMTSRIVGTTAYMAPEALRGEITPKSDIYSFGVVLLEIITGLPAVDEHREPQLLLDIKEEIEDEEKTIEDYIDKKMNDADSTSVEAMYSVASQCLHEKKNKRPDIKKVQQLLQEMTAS
Description: The degradation level of IRAK4 protein in SU-DHL-2 cell line by the compounds was detected by flow cytometry.
Step 2: On day 1, the cells were seeded at a density of 2 × 10^5 cells per well in 100 µL in a 96-well plate. The compounds were dissolved in DMSO to a final concentration of 10 mM, and then diluted with culture medium at a 1:5 concentration gradient to prepare 10 concentrations. The diluted solutions were added to the cells to obtain a maximum final concentration of 2 µM. Wells containing cells treated with 0.1% DMSO served as the […] The cells were incubated at 37°C in a 5% CO2 incubator for 24 hours.
Step 3: After centrifugation, the cells were washed with FACS buffer. The cells were stained for viability discrimination using the LIVE/DEAD™ Fixable Blue Dead Cell Stain Kit, and surface staining of monocytes was performed with PE Mouse Anti-Human CD14, followed by incubation at 4°C for 30 minutes.
Step 4: After centrifugation, the cells were washed with FACS buffer. Fix buffer I, equal in volume to the cultured cells, was added, and the cells were fixed at 37°C for 10 minutes.
Step 5: After centrifugation, the cells were washed with FACS buffer. 150 µL of Perm III reagent was added, and the cells were incubated at 4°C for 30 minutes to permeabilize the membranes. After centrifugation, the cells were washed with FACS buffer.
(§10) Flow cytometry analysis was performed using a flow cytometer.
The flow cytometry data were analyzed using Flowjo software. Data presentation and DC50 (half-maximal degradation concentration) calculation were performed using Prism 8.0.2 (GraphPad).

IRAK4 [4] = molecular target: T1, IRAK4; test: Degradation of IRAK4 in monocytes of human PBMCs (flow cytometry); assay type: cell-based; parameters: endogenous in cells; details: human PBMC monocytes, 24 hours incubation
Description: The degradation level of IRAK4 in monocytes of human peripheral blood mononuclear cells (hPBMCs) was detected by flow cytometry.
On day 1, the cells were seeded at a density of 2 × 10^5 cells per well in 100 µL in a 96-well plate.
The compounds were dissolved in DMSO to a final concentration of 10 mM, and then diluted with culture medium at a 1:5 concentration gradient to prepare 10 concentrations. The diluted solutions were added to the cells to obtain a maximum final concentration of 2 µM. Wells containing cells treated with 0.1% DMSO served as the positive control
The cells were incubated at 37°C in a 5% CO2 incubator for 24 hours.
The cells were stained for viability discrimination using the LIVE/DEAD™ Fixable Blue Dead Cell Stain Kit, and surface staining of monocytes was performed with PE Mouse Anti-Human CD14, followed by incubation at 4°C for 30 minutes.
Fix buffer I, equal in volume to the cultured cells, was added, and the cells were fixed at 37°C for 10 minutes.
150 µL of Perm III reagent was added, and the cells were incubated at 4°C for 30 minutes to permeabilize the membranes.
as §10
The flow cytometry data were analyzed using Flowjo software. Data presentation and DC50 calculation were performed using Prism 8.0.2 (GraphPad).

[5] = mice, 8 hours after last administration
Description: Experimental animals: SPF-grade male C57BL/6J mice aged 6-8 weeks.
Preparation of compound: 10% DMSO + 50% PEG400 + 40% sterile water for injection. The compound was dissolved in DMSO, followed by the addition of PEG400 and sterile water for injection, and the solution was adjusted to clarity with 6N hydrochloric acid.
Compound administration and IL-33 inflammatory induction: The mice were randomly grouped according to body weight and orally administered with the compound at final doses of 15 mg/kg, 50 mg/kg, and 150 mg/kg, twice daily. At 4 hours after the last administration of the compound, the mice were intraperitoneally injected with 1 µg/100 µL PBS of IL-33 for inflammatory induction.
Termination, sample collection, and data: Plasma, peritoneal lavage fluid, and spleen were collected for subsequent sample index detection.
The experiment was terminated 8 hours after the last administration. The mice were anesthetized, and cardiac blood was collected. The blood samples were anticoagulated with EDTA-K2, centrifuged at 3500 rpm for 15 minutes, and the upper plasma was collected.

hERG potassium channel = hERG potassium channel (Homo sapiens, UniProt Q12809); test: Inhibition of hERG potassium channel, whole-cell manual patch clamp in CHO-hERG cells; details: @ 1 µM test compound
Description: The effects of compounds on hERG potassium channel (human Ether-a-go-go Related Gene potassium channel) currents were tested using the whole-cell manual voltage-clamp electrophysiological method.
CHO cells stably expressing hERG were cultured in cell culture dishes with a diameter of 35 mm and incubated at 37°C in a 5% CO2 incubator. The cells were passaged at a ratio of 1:5 every 48 hours. The culture medium was formulated as follows: 90% F12 (Invitrogen), 10% fetal bovine serum (Gibco), 100 g/mL G418 (Invitrogen), and 100 g/mL Hygromycin B (Invitrogen). On the day of the experiment, the cell culture medium was aspirated, and the cells were rinsed once with extracellular solution. […] The digestion solution was aspirated, and the cells were resuspended in extracellular solution and then transferred to experimental dishes for electrophysiological recording for later use.
On the day of testing, the compounds were prepared as 10 mM stock solutions in DMSO, then diluted to 1 mM with DMSO, and further diluted 1000-fold with extracellular solution to obtain the desired final test concentration.
hERG potassium channel currents were recorded at room temperature using the whole-cell patch-clamp technique in CHO cells stably expressing the hERG channel. The glass microelectrode was prepared by pulling the glass electrode blank (BF150-86-10, Sutter) with a puller, and the tip resistance after filling with the internal electrode solution was about 2-5 MΩ. The glass microelectrode was inserted into the amplifier probe and then connected to the patch-clamp amplifier. The clamping voltage and data recording were controlled and recorded by pClamp software via a computer, with a sampling frequency of 10 kHz and a filtering frequency of 2 kHz. After obtaining the whole-cell recording, cells were clamped at -100 mV. The hERG potassium current (IhERG) was evoked by applying a 2 s depolarizing voltage step from -100 mV to +20 mV, followed by repolarization to -50 mV for 1 s before returning to -100 mV. […]
Data were analyzed and processed using pClamp, GraphPad Prism 8 and Excel software. […]

IRAK4 [6] = molecular target: T1, IRAK4; assay type: cell-based; parameters: endogenous in cells; host or cells: OCI-LY3; details: read-out: OCI-LY3 DC50; OCI-LY3 cells
[7] = IL-1β 100 ng/mL, read-out: IC50 of compounds against induced secretion, IL-6, IL-1β
[8] = LPS 100 ng/mL, read-out: IC50 of compounds against induced secretion, IL-6, LPS
[9] = R848 1 µg/mL, read-out: IC50 of compounds against induced secretion, IL-6, R848
[10] = IL-1β 100 ng/mL, read-out: IC50, TNFα secretion induced by IL-1β
[11] = LPS 100 ng/mL, read-out: IC50, TNFα secretion induced by LPS
[12] = R848 1 µg/mL, read-out: IC50, TNFα secretion induced by R848

Sequence of hERG potassium channel (Q12809 whole entry): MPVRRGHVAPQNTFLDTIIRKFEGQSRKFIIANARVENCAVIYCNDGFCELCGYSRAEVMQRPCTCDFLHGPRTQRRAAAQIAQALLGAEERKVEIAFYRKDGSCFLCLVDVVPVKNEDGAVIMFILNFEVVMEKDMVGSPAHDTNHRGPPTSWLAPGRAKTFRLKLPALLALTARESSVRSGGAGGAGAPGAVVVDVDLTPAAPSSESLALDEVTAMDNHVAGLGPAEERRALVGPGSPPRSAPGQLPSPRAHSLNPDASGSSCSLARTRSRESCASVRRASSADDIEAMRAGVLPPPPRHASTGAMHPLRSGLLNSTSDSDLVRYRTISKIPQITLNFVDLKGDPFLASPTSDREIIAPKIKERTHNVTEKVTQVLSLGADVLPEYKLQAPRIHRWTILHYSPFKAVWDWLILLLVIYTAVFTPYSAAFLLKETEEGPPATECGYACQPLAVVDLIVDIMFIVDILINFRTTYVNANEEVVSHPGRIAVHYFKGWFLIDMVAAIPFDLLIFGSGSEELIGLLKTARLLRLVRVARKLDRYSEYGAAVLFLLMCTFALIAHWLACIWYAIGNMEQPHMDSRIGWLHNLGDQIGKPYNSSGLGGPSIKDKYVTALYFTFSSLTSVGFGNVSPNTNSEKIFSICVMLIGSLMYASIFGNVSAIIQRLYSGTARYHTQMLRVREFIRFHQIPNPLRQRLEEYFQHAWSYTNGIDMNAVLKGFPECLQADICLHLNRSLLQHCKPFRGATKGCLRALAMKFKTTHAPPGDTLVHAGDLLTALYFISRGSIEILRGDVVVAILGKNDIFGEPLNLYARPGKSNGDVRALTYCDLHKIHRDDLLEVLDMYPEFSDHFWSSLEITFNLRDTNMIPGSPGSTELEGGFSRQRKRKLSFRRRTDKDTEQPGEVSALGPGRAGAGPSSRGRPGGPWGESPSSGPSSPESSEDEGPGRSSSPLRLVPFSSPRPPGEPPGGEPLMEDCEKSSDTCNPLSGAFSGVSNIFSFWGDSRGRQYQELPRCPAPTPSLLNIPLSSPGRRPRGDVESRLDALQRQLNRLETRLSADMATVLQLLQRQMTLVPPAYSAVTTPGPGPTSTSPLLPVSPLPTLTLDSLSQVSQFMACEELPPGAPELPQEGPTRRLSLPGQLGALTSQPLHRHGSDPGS

Row | SMILES | AUC(0-inf) [1] [ng·h/mL] | AUC(0-t) at 24 h [1] [ng·h/mL] | Cmax [1] [ng/mL] | MRT inf [1] [h] | Tmax [1] [h] | half-life [1] [h] | IC50 (IL-6 secretion; [7]) [nM] | IC50 (IL-6 secretion; [8]) [nM] | IC50 (IL-6 secretion; [9]) [nM] | AUC(0-t) at 24 h [2] [ng·h/mL] | Cmax [2] [ng/mL] | MRT inf [2] [h] | half-life [2] [h] | IC50 (TNFα secretion; [10]) [nM] | IC50 (TNFα secretion; [11]) [nM] | IC50 (TNFα secretion; [12]) [nM] | DC50 (IRAK4 [3]) [nM] | other results
1 | Cn1c(=O)n(C2CCC(=O)NC2=O)c2cccc(C#CCOC3CCN(C(=O)N4CCC5(CC4)CC(n4cc(NC(=O)c6cnn7ccc(N8C[C@H]9C[C@@H]8CO9)nc67)c(C(F)F)n4)C5)CC3)c21 (some centres unmarked) [Example 13] | 19200 | 16300 | 2160 | 10.9 | 1 | 7.6 | 13.2 | 19.7 | 10 | 521 | 102 | 4.5 | 2.1 | 13 | 22.3 | 20 |  | 
2 | Cn1c(=O)n(C2CCC(=O)NC2=O)c2cccc(C#CCO[C@H]3CC[C@H](CN4CCC5(CC4)CC(n4cc(NC(=O)c6cnn7ccc(N8C[C@H]9C[C@@H]8CO9)nc67)c(C(F)F)n4)C5)CC3)c21 (some centres unmarked) [Example 31] | 5460 | 4890 | 364 | 10.4 | 3.3 | 7.3 | 9.3 | 4.6 | 0.9 | 198 | 15 | 12 | 8 | 2.1 | 7.7 | 8.2 |  | 
3 | Cn1c(=O)n(C2CCC(=O)NC2=O)c2cccc(C#CC(C)(C)N3CCC(C(=O)N4CCC5(CC4)CC(n4cc(NC(=O)c6cnn7ccc(N8C[C@H]9C[C@@H]8CO9)nc67)c(C(F)F)n4)C5)CC3)c21 (some centres unmarked) [Example 56] |  |  |  |  |  |  |  |  |  |  |  |  |  |  |  |  | 5 | DC50 (IRAK4 [4]): 1.1 nM
4 | Cn1c(=O)n(C2CCC(=O)NC2=O)c2cccc(C#CCOC3CCN(C[C@H]4CC[C@H](n5cc(NC(=O)c6cnn7ccc(N8C[C@H]9C[C@@H]8CO9)nc67)c(C(F)F)n5)CC4)CC3)c21 (some centres unmarked) [KT-474, reference compound] |  |  |  |  |  |  | 18 | 41 | 14 | 380 | 31 | 10.3 | 6.7 | 13 | 31 | 52 |  | C8hr Plasma ([5]; PO 15 mpk twice daily): 100 ng/mL; C8hr Spleen ([5]; PO 15 mpk twice daily): 896 ng/mL; C8hr Plasma ([5]; PO 50 mpk twice daily): 262 ng/mL; C8hr Spleen ([5]; PO 50 mpk twice daily): 1740 ng/mL; C8hr Plasma ([5]; PO 150 mpk twice daily): 578 ng/mL; C8hr Spleen ([5]; PO 150 mpk twice daily): 7262 ng/mL; hERG (inhibition%) (hERG potassium channel): 47% @ 1 µM
5 | Cn1c(=O)n(C2CCC(=O)NC2=O)c2cccc(C#CCOCCN3CCC4(CC3)CC(n3cc(NC(=O)c5cnn6ccc(N7C[C@H]8C[C@@H]7CO8)nc56)c(C(F)F)n3)C4)c21 (some centres unmarked) [Example 1] |  |  |  |  |  |  |  |  |  |  |  |  |  |  |  |  | 1.4 | DC50 (IRAK4 [6]): 0.4 nM
